Measurements as given in US11046658B2, “Aminopyrazine derivatives as PI3K-γ inhibitors” (Incyte Corporation, priority 2018, dated 2021).
Where a name gives a salt, the structure may show the parent alone. Read-outs that look alike come from different tables or passages of the source.

System: Phosphorylated Ribosomal Protein S6 (RPS6) in THP-1 cells
Assay: THP-1 RPS6 ELISA Assay
Format: cell-based, Human
Procedure: To measure the Phosphorylated Ribosomal Protein S6 (RPS6) in cell lysates, THP-1 cells (Human Acute Monocytic Leukemia) are purchased from ATCC (Manassas, Va.) and maintained in RPMI with 10% FBS (Gibco/Life Technologies, Carlsbad, Calif.). For the assay, THP-1 cells are serum starved overnight in RPMI, then plated in RPMI (2×10^5 cells/well in 90 μL) into 96-well flat-bottom tissue culture treated plates (Corning, Corning, N.Y.), in the presence or absence of a concentration range of test compounds. Covered plates are incubated for 2 hours at 37° C., 5% CO2 then treated with or without 10 nM MCP-1(MYBioSource, San Diego, Calif.) for 15 minutes at 37° C., 5% CO2. Plates are centrifuged at 1600 RPM and supernatants are removed. Cells are lysed in Lysis Buffer (Cell Signaling, Danvers, Mass.) with Protease Inhibitor (Calbiochem/EMD, Germany), PMSF (Sigma, St Louis Mo.), HALTS (Thermo Fisher, Rockford, Ill.) for 30 min on wet ice. Cell lysates are frozen at −80 OC before testing. The lysates are tested in the Human/Mouse/Rat Phospho-RPS6 ELISA (R&D Systems, Inc. Minn, Minn.). The plate is measured using a microplate reader (SpectraMax M5—Molecular Devices, LLC Sunnyvale, Calif.) set to 450 nm with a wavelength correction of 540. IC50 determination is performed by fitting the curve of inhibitor percent inhibition versus the log of the inhibitor concentration using the GraphPad Prism 5.0 software.

[1] = Homo sapiens, Table A2, THP-1 cells, 10 nM MCP-1, read-out: PI3Kγ_THP1_RPS6_ELISA IC50
[2] = Homo sapiens, Table A3, THP-1 cells, 10 nM MCP-1, read-out: PI3Kγ_THP1_RPS6_ELISA IC50
[3] = Homo sapiens, Table A1, THP-1 cells, 10 nM MCP-1, read-out: PI3Kγ_THP1_RPS6_ELISA IC50

Compound	IC50 [1]	IC50 [3]	other results
Cc1ccc(C(O)(C(N)=O)C(F)(F)F)cc1-c1cnc(N)c(N2CCN(c3ccccn3)CC2)n1 (centres unmarked) [Example 117, 2-(3-(5-amino-6-(4-(pyridin-2-yl)piperazin-1-yl)pyrazin-2-yl)-4-methylphenyl)-3,3,3-trifluoro-2-hydroxypropanamide trifluoroacetate]			IC50 (Homo sapiens, THP-1, read-out: PI3Kγ_THP1_RPS6_ELISA IC50 (nM)): < 100 nM
Cc1ccc(C(O)(C(N)=O)C(F)(F)F)cc1-c1cnc(N)c(C#Cc2ccc(CC#N)cc2)n1 (centres unmarked) [Example 59, 2-(3-(5-amino-6-((4-(cyanomethyl)phenyl)ethynyl)pyrazin-2-yl)-4-methylphenyl)-3,3,3-trifluoro-2-hydroxypropanamide]	< 100 nM		
Cc1ccc(C(O)(CNC=O)C(F)(F)F)cc1-c1cnc(N)c(-c2cnc(C3CC3)s2)n1 (centres unmarked) [Example 102, N-(2-(3-(5-amino-6-(2-cyclopropylthiazol-5-yl)pyrazin-2-yl)-4-methylphenyl)-3,3,3-trifluoro-2-hydroxypropyl)formamide trifluoroacetate]			IC50 [2]: < 100 nM
Cc1ccc(C(O)(C(N)=O)C(F)(F)F)cc1-c1cnc(N)c(C#CC2CC2)n1 (centres unmarked) [Example 48, 2-(3-(5-amino-6-(cyclopropylethynyl)pyrazin-2-yl)-4-methylphenyl)-3,3,3-trifluoro-2-hydroxypropanamide]	> 1000 nM		
Cc1ccc(C(O)(C(N)=O)C(F)(F)F)cc1-c1cnc(N)c(-c2ccc(CC#N)cc2)n1 (centres unmarked) [Example 87, 2-(3-(5-amino-6-(4-(cyanomethyl)phenyl)pyrazin-2-yl)-4-methylphenyl)-3,3,3-trifluoro-2-hydroxypropanamide trifluoroacetate]			IC50 [2]: < 500 nM
Cc1ccc(C(O)(C(N)=O)C(F)(F)F)cc1-c1cnc(N)c(C(=O)N[C@@H](C)CO)n1 (stereo partly drawn) [Example 12, 3-amino-6-(5-(3-amino-1,1,1-trifluoro-2-hydroxy-3-oxopropan-2-yl)-2-methylphenyl)-N-((S)-1-hydroxypropan-2-yl)pyrazine-2-carboxamide]		< 100 nM	
Cc1ccc(C(O)(C(N)=O)C(F)(F)F)cc1-c1cnc(N)c(C#CCC(C)O)n1 (centres unmarked) [Example 51, 2-(3-(5-amino-6-(4-hydroxypent-1-ynyl)pyrazin-2-yl)-4-methylphenyl)-3,3,3-trifluoro-2-hydroxypropanamide]	< 100 nM		
Cc1ccc(C(O)(C(N)=O)C(F)(F)F)cc1-c1cnc(N)c(C#CC2(O)CCN(C)C2=O)n1 (centres unmarked) [Example 65, 2-(3-(5-amino-6-((3-hydroxy-1-methyl-2-oxopyrrolidin-3-yl)ethynyl)pyrazin-2-yl)-4-methylphenyl)-3,3,3-trifluoro-2-]	< 100 nM		
Cc1ccc(C(O)(C(N)=O)C(F)(F)F)cc1-c1cnc(N)c(C#Cc2cnccn2)n1 (centres unmarked) [Example 57, 2-(3-(5-amino-6-(pyrazin-2-ylethynyl)pyrazin-2-yl)-4-methylphenyl)-3,3,3-trifluoro-2-hydroxypropanamide]	< 100 nM		
Cc1ccc(C(O)(C(N)=O)C(F)(F)F)cc1-c1cnc(N)c(N2CCN(c3ccccc3C#N)CC2)n1 (centres unmarked) [Example 122, 2-(3-(5-amino-6-(4-(2-cyanophenyl)piperazin-1-yl)pyrazin-2-yl)-4-methylphenyl)-3,3,3-trifluoro-2-hydroxypropanamide trifluoroacetate]			IC50 (Homo sapiens, Table A4, THP-1 cells, 10 nM MCP-1, cells given with + symbol, read-out: PI3Kγ_THP1_RPS6_ELISA IC50): < 100 nM
Cc1ccc(C(O)(C(N)=O)C(F)(F)F)cc1-c1cnc(N)c(C#CC(C)(C)O)n1 (centres unmarked) [Example 50, 2-(3-(5-amino-6-(3-hydroxy-3-methylbut-1-ynyl)pyrazin-2-yl)-4-methylphenyl)-3,3,3-trifluoro-2-hydroxypropanamide]	< 100 nM		
Cc1ccc(C(O)(C(N)=O)C(F)(F)F)cc1-c1cnc(N)c(C(=O)NCC(F)(F)F)n1 (centres unmarked) [Example 38, 3-Amino-6-(5-(3-amino-1,1,1-trifluoro-2-hydroxy-3-oxopropan-2-yl)-2-methylphenyl)-N-(2,2,2-trifluoroethyl)pyrazine-2-carboxamide trifluoroacetate]		< 100 nM	
Cc1ccc(C(O)(C(N)=O)C(F)(F)F)cc1-c1cnc(N)c(C#CC(C)C)n1 (centres unmarked) [Example 49, 2-(3-(5-amino-6-(3-methylbut-1-ynyl)pyrazin-2-yl)-4-methylphenyl)-3,3,3-trifluoro-2-hydroxypropanamide]	< 500 nM		
Cc1ccc(C(O)(C(N)=O)C(F)(F)F)cc1-c1cnc(N)c(C(=O)NC2CC3CCC2O3)n1 (single isomer, unassigned) [Example 30, 3-amino-6-(5-(3-amino-1,1,1-trifluoro-2-hydroxy-3-oxopropan-2-yl)-2-methylphenyl)-N-(7-oxabicyclo[2.2.1]heptan-2-yl)pyrazine-2-carboxamide]			IC50 (Table A1, THP-1 cells, 10 nM MCP-1, read-out: PI3Kγ_THP1_RPS6_ELISA IC50): < 100 nM
Cc1ccc(C(O)(C(N)=O)C(F)(F)F)cc1-c1cnc(N)c(-c2ccc(C(F)(F)F)nc2)n1 (centres unmarked) [Example 83, 2-(3-(5-amino-6-(6-(trifluoromethyl)pyridin-3-yl)pyrazin-2-yl)-4-methylphenyl)-3,3,3-trifluoro-2-hydroxypropanamide bistrifluoroacetate]			IC50 [2]: < 500 nM
Cc1ccc(C(O)(C(N)=O)C(F)F)cc1-c1cnc(N)c(-c2cnn(C)n2)n1 (centres unmarked) [Example 101, 2-(3-(5-amino-6-(2-methyl-2H-1,2,3-triazol-4-yl)pyrazin-2-yl)-4-methylphenyl)-3,3-difluoro-2-hydroxypropanamide]			IC50 [2]: < 100 nM
Cc1ccc(C(O)(C(N)=O)C(F)F)cc1-c1cnc(N)c(C(=O)NCC2(C#N)CC2)n1 (centres unmarked) [Example 33, 3-amino-6-(5-(1-amino-3,3-difluoro-2-hydroxy-1-oxopropan-2-yl)-2-methylphenyl)-N-((1-cyanocyclopropyl)methyl)pyrazine-2-carboxamide]		< 100 nM	
Cc1ccc(C(O)(C(N)=O)C(F)(F)F)cc1-c1cnc(N)c(C(=O)NC2CCC(F)(F)CC2)n1 (centres unmarked) [Example 6, 3-amino-6-(5-(3-amino-1,1,1-trifluoro-2-hydroxy-3-oxopropan-2-yl)-2-methylphenyl)-N-(4,4-difluorocyclohexyl)pyrazine-2-carboxamide trifluoroacetate]		< 100 nM	
Cc1ccc(C(O)(C(N)=O)C(F)(F)F)cc1-c1cnc(N)c(C(=O)N[C@@H]2CCCOC2)n1 (stereo partly drawn) [Example 9, 3-amino-6-(5-(3-amino-1,1,1-trifluoro-2-hydroxy-3-oxopropan-2-yl)-2-methylphenyl)-N-((R)-tetrahydro-2H-pyran-3-yl)pyrazine-2-carboxamide trifluoroacetate]		< 100 nM	
Cc1ccc(C(O)(C(N)=O)C(F)(F)F)cc1-c1cnc(N)c(C#Cc2cncnc2)n1 (centres unmarked) [Example 56, 2-(3-(5-amino-6-(pyrimidin-5-ylethynyl)pyrazin-2-yl)-4-methylphenyl)-3,3,3-trifluoro-2-hydroxypropanamide]	< 100 nM		
Cc1ccc(C(O)(C(N)=O)C(F)F)cc1-c1cnc(N)c(C(=O)NC(C)(C)CO)n1 (centres unmarked) [Example 35, 3-amino-6-(5-(1-amino-3,3-difluoro-2-hydroxy-1-oxopropan-2-yl)-2-methylphenyl)-N-(1-hydroxy-2-methylpropan-2-yl)pyrazine-2-carboxamide]		< 100 nM	
Cc1ccc(C(O)(C(N)=O)C(F)(F)F)cc1-c1cnc(N)c(C(=O)N[C@H]2CCOC2)n1 (stereo partly drawn) [Example 11, 3-amino-6-(5-(3-amino-1,1,1-trifluoro-2-hydroxy-3-oxopropan-2-yl)-2-methylphenyl)-N-((S)-tetrahydrofuran-3-yl)pyrazine-2-carboxamide trifluoroacetate]		< 100 nM	
Cc1ccc(C(O)(C(N)=O)C(F)(F)F)cc1-c1cnc(N)c(C(=O)NC23CCC(C#N)(C2)C3)n1 (centres unmarked) [Example 24, 3-amino-6-(5-(3-amino-1,1,1-trifluoro-2-hydroxy-3-oxopropan-2-yl)-2-methylphenyl)-N-(4-cyanobicyclo[2.1.1]hexan-1-yl)pyrazine-2-carboxamide trifluoroacetate]		< 100 nM	
Cc1ccc(C(O)(C(N)=O)C(F)(F)F)cc1-c1cnc(N)c(C(=O)N[C@@H](C)CC#N)n1 (stereo partly drawn) [Example 8, 3-amino-6-(5-(3-amino-1,1,1-trifluoro-2-hydroxy-3-oxopropan-2-yl)-2-methylphenyl)-N-((S)-1-cyanopropan-2-yl)pyrazine-2-carboxamide trifluoroacetate]		< 100 nM	
CNC(=O)c1ccc(-c2nc(-c3cc(C(O)(C(N)=O)C(F)(F)F)ccc3C)cnc2N)cc1 (centres unmarked) [Example 89, 4-(3-amino-6-(5-(3-amino-1,1,1-trifluoro-2-hydroxy-3-oxopropan-2-yl)-2-methylphenyl)pyrazin-2-yl)-N-methylbenzamide trifluoroacetate]			IC50 [2]: < 500 nM
Cc1ccc(C(O)(C(N)=O)C(F)(F)F)cc1-c1cnc(N)c(C#Cc2cccc(F)c2)n1 (centres unmarked) [Example 61, 2-(3-(5-amino-6-((3-fluorophenyl)ethynyl)pyrazin-2-yl)-4-methylphenyl)-3,3,3-trifluoro-2-hydroxypropanamide]	< 100 nM		
